We go through 22 molecules from patent US10508085B2, “Compounds and methods for IDO and TDO modulation, and indications therefor” (Plexxikon Inc., priority 2016, dated 2019).

The target in experiment [1] is T1, Human Tryptophan 2,3-dioxygenase (TDO) (Homo sapiens, UniProt P48775).
T1 construct: His tag (N); made in house; host or cells: E. coli
The experiment is described as follows: Human TDO enzymatic assay (kynurenine level). Format: biochemical. The following applies: 1 nM TDO, 350 μM L-Trp; geometric mean; read-out: TDO GMean: IC50 (μM) (Biochemical Assay). The gist of the method:
(§1)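 Reactions were stopped with TCA, converting N-formylkynurenine to kynurenine for quantitation, with IC50 by nonlinear regression. IDO: 6 nM enzyme, 10 μM L-Trp, 20 min RT. TDO: 1 nM enzyme, 350 μM L-Trp, 70 min RT, both in pH 6.5 buffer.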

For experiment [2], the target named is T2, human IDO (IDO1-expressing HEK293 cells) (Homo sapiens, UniProt P14902).
T2 construct: expressed in transfected cells
T2 sequence (P14902 whole entry): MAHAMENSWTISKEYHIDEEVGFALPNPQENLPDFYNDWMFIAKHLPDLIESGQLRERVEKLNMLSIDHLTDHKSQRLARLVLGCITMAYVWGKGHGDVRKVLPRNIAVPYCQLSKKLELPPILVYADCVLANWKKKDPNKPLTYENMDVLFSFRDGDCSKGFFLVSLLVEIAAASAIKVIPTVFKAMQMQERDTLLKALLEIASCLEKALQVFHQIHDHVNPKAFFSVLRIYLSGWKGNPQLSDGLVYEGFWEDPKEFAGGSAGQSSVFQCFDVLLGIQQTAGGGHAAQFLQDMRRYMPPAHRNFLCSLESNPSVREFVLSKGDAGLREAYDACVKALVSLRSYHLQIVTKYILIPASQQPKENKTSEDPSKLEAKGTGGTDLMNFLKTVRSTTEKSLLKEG
Kind of experiment: Cell based kynurenine assay, IDO1-expressing HEK293 cell clones. The following applies: IDO1-expressing HEK293 cells, geometric mean, read-out: HEK293 IDO1 Kynurenine GMean IC50 (μM) (Cellular Assay). The gist of the method:
(§2)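 Steps: seed IDO1- or TDO-expressing HEK293 cells at 2.5×10^4 per well; add compound dilutions; incubate 24 h; transfer supernatant and determine kynurenine; derive IC50 via nonlinear regression of percent inhibition.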

Experiment [3] concerns the target T3, human TDO (TDO-expressing HEK293 cells) (Homo sapiens, UniProt P48775).
T3 construct: expressed in transfected cells
Kind of experiment: Cell based kynurenine assay, TDO-expressing HEK293 cell clones. Conditions: TDO-expressing HEK293 cells, geometric mean, read-out: HEK293 TDO Kynurenine GMean IC50 (μM) (Cellular Assay). The gist of the method:
as §2

Experiment [4] addresses T4, Human Indoleamine 2,3-dioxygenase (IDO) (Homo sapiens, UniProt P14902).
T4 construct: His tag (N); made in house; host or cells: E. coli
The experiment is described as follows: Human IDO enzymatic assay (kynurenine level). The class given is biochemical. Conditions: 6 nM IDO, 10 μM L-Trp; geometric mean; read-out: IDO1 GMean: IC50 (μM) (Biochemical Assay). The gist of the method: as §1

Like-named read-outs stand apart in the source and are kept apart here. A value given as a limit tells only on which side of the number the result lay.

T1 sequence (P48775 whole entry): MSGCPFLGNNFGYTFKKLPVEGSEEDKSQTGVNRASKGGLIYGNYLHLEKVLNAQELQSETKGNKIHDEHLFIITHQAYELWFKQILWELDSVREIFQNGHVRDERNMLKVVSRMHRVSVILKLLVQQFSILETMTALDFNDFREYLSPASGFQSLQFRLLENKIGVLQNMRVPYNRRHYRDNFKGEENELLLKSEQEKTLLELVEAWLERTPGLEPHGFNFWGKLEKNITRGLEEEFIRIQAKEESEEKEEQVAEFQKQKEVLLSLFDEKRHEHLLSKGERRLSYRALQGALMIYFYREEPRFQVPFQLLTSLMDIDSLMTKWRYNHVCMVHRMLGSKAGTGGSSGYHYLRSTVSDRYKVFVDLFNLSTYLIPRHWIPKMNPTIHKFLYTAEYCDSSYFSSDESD
T3 sequence (P48775 whole entry): as above
T4 sequence (P14902 whole entry): as the sequence (P14902 whole entry) above

Turning to `CNC(=O)N1CCC(C(C)(C)[C@H](O)c2cc(Cl)cc3cn[nH]c23)CC1` [Compound P-0445, (S)-4-(1-(5-chloro-1H-indazol-7-yl)-1-hydroxy-2-methylpropan-2-yl)-N-methylpiperidine-1-carboxamide], the IC50 in experiment [1], in experiment [2] (24 hours), in experiment [3] (24 hours) and in experiment [4] was 0.0001 to 10 µM in each case.
As for `CCCC(=O)N1CCC(C(C)(C)C(O)c2cc(Cl)cc3cn[nH]c23)CC1` (stereo not shown) [Compound P-0460, 1-(4-(1-(5-chloro-1H-indazol-7-yl)-1-hydroxy-2-methylpropan-2-yl)piperidin-1-yl)butan-1-one], the IC50 in experiment [1], in experiment [2] (24 hours), in experiment [3] (24 hours) and in experiment [4] was 0.0001 to 10 µM in each case.
Take `CC(C)(C1CC1)C(O)c1cc(Cl)cc2cn[nH]c12` (stereo not shown) [Compound P-0224, 1-(5-chloro-1H-indazol-7-yl)-2-cyclopropyl-2-methylpropan-1-ol]: the IC50 in experiment [1], in experiment [2] (24 hours incubation), in experiment [3] (24 hours incubation) and in experiment [4] was 0.0001 to 10 µM throughout.
`CC(C)(C1CCN(C(=O)Nc2ccnc(N3CCOCC3)c2)CC1)C(O)c1cc(Cl)cc2cn[nH]c12` (stereo not shown) [Compound P-0390, 4-(1-(5-chloro-1H-indazol-7-yl)-1-hydroxy-2-methylpropan-2-yl)-N-(2-morpholinopyridin-4-yl)piperidine-1-carboxamide]: the half-maximal inhibitory concentration (IC50) in experiment [1], in experiment [2] (24 hours incubation), in experiment [3] (24 hours incubation) and in experiment [4] was 0.0001 to 10 µM each time.
Turning to `CC(C)(C1CCN(C(=O)Nc2ccc(C#N)cc2)CC1)[C@H](O)c1cc(Cl)cc2cn[nH]c12` [Compound P-0447, (S)-4-(1-(5-chloro-1H-indazol-7-yl)-1-hydroxy-2-methylpropan-2-yl)-N-(4-cyanophenyl) piperidine-1-carboxamide], the IC50 in experiment [1], in experiment [2] (24 hours), in experiment [3] (24 hours) and in experiment [4] was 0.0001 to 10 µM each time.
As for `Cc1ccc2cn[nH]c2c1C(O)C(C)(C)C1CCOCC1` (stereo not shown) [Compound P-0234, 2-methyl-1-(6-methyl-1H-indazol-7-yl)-2-(tetrahydro-2H-pyran-4-yl)propan-1-ol], the IC50 in experiment [1], in experiment [2] (24 hours incubation), in experiment [3] (24 hours incubation) and in experiment [4] was 0.0001 to 10 µM throughout.
Regarding `CN(C)S(=O)(=O)N1CCC(C(C)(C)C(O)c2cc(Cl)cc3cn[nH]c23)CC1` (stereo not shown) [Compound P-0308, 4-(1-(5-chloro-1H-indazol-7-yl)-1-hydroxy-2-methylpropan-2-yl)-N,N-dimethylpiperidine-1-sulfonamide], the IC50 in experiment [1], in experiment [2] (24 hours incubation), in experiment [3] (24 hours incubation) and in experiment [4] was 0.0001 to 10 µM in each case.
In the case of `CC(=O)N1CCC(C(F)(F)C(O)c2cc(Cl)cc3cn[nH]c23)CC1` (stereo not shown) [Compound P-0295, 1-(4-(2-(5-chloro-1H-indazol-7-yl)-1,1-difluoro-2-hydroxyethyl)piperidin-1-yl)ethan-1-one], the 50% inhibitory concentration (IC50) in experiment [1], in experiment [2] (24 hours incubation), in experiment [3] (24 hours incubation) and in experiment [4] was 0.0001 to 10 µM in each case.
For the molecule `CC(C)(C1CCN(C(=O)C2CC2)CC1)[C@H](O)c1c(F)c(Cl)cc2cn[nH]c12` [Compound P-0504, (S)-(4-(1-(5-chloro-6-fluoro-1H-indazol-7-yl)-1-hydroxy-2-methylpropan-2-yl)piperidin-1-yl)(cyclopropyl) methanone], the half-maximal inhibitory concentration (IC50) in experiment [1], in experiment [2] (24 hours), in experiment [3] (24 hours) and in experiment [4] was 0.0001 to 10 µM each time.
As to `OC(c1c(F)c(Cl)cc2cn[nH]c12)C1CC2CCC1C2` (stereo not shown) [Compound P-0258, bicyclo[2.2.1]heptan-2-yl(5-chloro-6-fluoro-1H-indazol-7-yl)methanol], the half-maximal inhibitory concentration (IC50) in experiment [1], in experiment [2] (24 hours incubation), in experiment [3] (24 hours incubation) and in experiment [4] was 0.0001 to 10 µM in each case.
For `OC1(c2cc(Cl)cc3cn[nH]c23)CC2(CCCCC2)C1` [Compound P-0051, 2-(5-chloro-1H-indazol-7-yl)spiro[3.5]nonan-2-ol], the half-inhibitory concentration (IC50) in experiment [1], in experiment [2] (24 hours incubation), in experiment [3] (24 hours incubation) and in experiment [4] was 0.0001 to 10 µM throughout.
With `CC(C)(C)OC(=O)N1CCC(C(F)(F)C(O)c2c3c(cc4cn[nH]c24)CC3)CC1` (stereo not shown) [Compound P-0490, tert-butyl 4-(2-(5,6-dihydro-1H-cyclobuta[f]indazol-7-yl)-1,1-difluoro-2-hydroxyethyl) piperidine-1-carboxylate], the IC50 in experiment [1], in experiment [2] (24 hours), in experiment [3] (24 hours) and in experiment [4] was 0.0001 to 10 µM each time.
For the molecule `CC(C)(C1CCN(C(=O)Nc2ccccc2Cl)CC1)[C@@H](O)c1cc(Cl)cc2cn[nH]c12` [Compound P-0432, (R)-4-(1-(5-chloro-1H-indazol-7-yl)-1-hydroxy-2-methylpropan-2-yl)-N-(2-chlorophenyl) piperidine-1-carboxamide], the 50% inhibitory concentration (IC50) in experiment [1] is 0.0001 to 10 µM; in experiment [2] (24 hours) it was greater than 10 µM; in experiment [3] (24 hours) it was 0.0001 to 10 µM; in experiment [4], 0.0001 to 10 µM.
`CC(C)(C(O)c1cc(Cl)cc2cn[nH]c12)[C@@H]1C[C@H]2CC[C@@H](C1)N2S(C)(=O)=O` (stereo partly drawn) [Compound P-0272, 1-(5-chloro-1H-indazol-7-yl)-2-methyl-2-((1R,3s,5S)-8-(methylsulfonyl)-8-azabicyclo[3.2.1]octan-3-yl)propan-1-ol]: the half-maximal inhibitory concentration (IC50) in experiment [1], in experiment [2] (24 hours incubation), in experiment [3] (24 hours incubation) and in experiment [4] was 0.0001 to 10 µM throughout.
Consider `CC(C)(C(O)c1cc(Cl)cc2cn[nH]c12)C(F)(F)F` (stereo not shown) [Compound P-0250, 1-(5-chloro-1H-indazol-7-yl)-3,3,3-trifluoro-2,2-dimethylpropan-1-ol], for which the half-inhibitory concentration (IC50) in experiment [1], in experiment [2] (24 hours incubation), in experiment [3] (24 hours incubation) and in experiment [4] was 0.0001 to 10 µM throughout.
With `CC(C)(C1CCN(C(=O)Nc2cc(F)ccc2F)CC1)C(O)c1cc(Cl)cc2cn[nH]c12` (stereo not shown) [Compound P-0404, 4-(1-(5-chloro-1H-indazol-7-yl)-1-hydroxy-2-methylpropan-2-yl)-N-(2,5-difluorophenyl) piperidine-1-carboxamide], the half-maximal inhibitory concentration (IC50) in experiment [1], in experiment [2] (24 hours incubation), in experiment [3] (24 hours incubation) and in experiment [4] was 0.0001 to 10 µM in each case.
With `CC(C)(C1CCN(C(=O)NCc2ccccc2)CC1)C(O)c1cc(Cl)cc2cn[nH]c12` (stereo not shown) [Compound P-0386, N-benzyl-4-(1-(5-chloro-1H-indazol-7-yl)-1-hydroxy-2-methylpropan-2-yl)piperidine-1-carboxamide], the IC50 in experiment [1], in experiment [2] (24 hours incubation), in experiment [3] (24 hours incubation) and in experiment [4] was 0.0001 to 10 µM in each case.
Turning to `CC(=O)N1C[C@H]2CC[C@@H](C1)[C@H]2C(F)(F)C(O)c1cc(Cl)cc2cn[nH]c12` (stereo partly drawn) [Compound P-0302, 1-((1R,5S,8s)-8-(2-(5-chloro-1H-indazol-7-yl)-1,1-difluoro-2-hydroxyethyl)-3-azabicyclo[3.2.1]octan-3-yl)ethan-1-one], the IC50 in experiment [1], in experiment [2] (24 hours incubation), in experiment [3] (24 hours incubation) and in experiment [4] was 0.0001 to 10 µM in each case.
For `CC(C)OC(=O)N1CCC(C(C)(C)C(O)c2cc(Cl)cc3cn[nH]c23)CC1` (stereo not shown) [Compound P-0323, isopropyl 4-(1-(5-chloro-1H-indazol-7-yl)-1-hydroxy-2-methylpropan-2-yl)piperidine-1-carboxylate], the IC50 in experiment [1], in experiment [2] (24 hours incubation), in experiment [3] (24 hours incubation) and in experiment [4] was 0.0001 to 10 µM in each case.
With `C#CCNC(=O)N1CCC(C(C)(C)[C@H](O)c2cc(Cl)cc3cn[nH]c23)CC1` [Compound P-0568, (S)-4-(1-(5-chloro-1H-indazol-7-yl)-1-hydroxy-2-methylpropan-2-yl)-N-(prop-2-yn-1-yl)piperidine-1-carboxamide], the concentration for half-maximal inhibition (IC50) in experiment [1], in experiment [2] (24 hours), in experiment [3] (24 hours) and in experiment [4] was 0.0001 to 10 µM in each case.
Regarding `OC1(c2cc(Cl)cc3cn[nH]c23)CC2(COC2)C1` [Compound P-0039, 6-(5-chloro-1H-indazol-7-yl)-2-oxaspiro[3.3]heptan-6-ol], the IC50 in experiment [1], in experiment [2] (24 hours incubation), in experiment [3] (24 hours incubation) and in experiment [4] was 0.0001 to 10 µM each time.
With `CCC(=O)NC(C)(C)CC(O)c1cc(Cl)cc2cn[nH]c12` (stereo not shown) [Compound P-0170, N-(4-(5-chloro-1H-indazol-7-yl)-4-hydroxy-2-methylbutan-2-yl)propionamide], the IC50 in experiment [1] is 0.0001 to 10 µM; in experiment [2] (24 hours incubation), greater than 10 µM; in experiment [3] (24 hours incubation), greater than 10 µM; in experiment [4], 0.0001 to 10 µM.

A word on the IC50: it is the point on the concentration scale where inhibition reaches its midpoint.
